The test system of one assay is S. aureus. The assay is described as follows: Inhibition of RIND IX reduction by various cyclic polypeptide antibiotics. Conditions: 635 nm. The format is cell-based, Staphylococcus aureus. The procedure: The following materials were used in this example: stock solutions of RIND IX compound dispersion prepared as described above, glucose (10% in water), trimethyl-1,4-benzoquinone ETA (1.5 mg/ml methanol), and the antibiotics (1 mg/ml in dimethylsulfoxide). S. aureus cells were grown as described above. The final cell concentration in the assay mixture was about 4.3×10^8 cells/ml.
Test solutions were prepared by adding in the order: 1.2 ml of HEPES buffer, 50 μl glucose solution, 1.5 ml of RIND IX dispersion, 100 μl of antibiotic solution, 100 μl of cell suspension and 25 μl of ETA solution. Control solutions were prepared as described in Examples 2 and 3. Optical density readings (OD) were measured at 635 nm at 0 minutes and after incubation at 37° C. for 30 minutes for test and control solutions, and the change in density (ΔOD) was determined. Table VI below lists the results, expressed as corrected percent inhibition of the reduction of the RIND compound. The corrected percent inhibition is calculated by dividing the difference between the ΔOD obtained from the Cell Control without antibiotic and the ΔOD of the test solution, by ΔOD of the Cell Control without antibiotic. All readings were corrected by subtracting readings of the appropriate background Controls.
Solutions containing 2.9 ml HEPES, 50 μl of the antibiotic solution and 100 μl cell solution were incubated at 37° C. for 30 minutes, centrifuged for 10 minutes and decanted. The resulting pellet was then treated with 1.4 ml HEPES, 50 μl glucose solution, 1.5 ml RIND IX dispersion and 25 μl ETA solution, mixed well and the densities recorded as described above in Method 1. The corrected percent inhibition data was calculated as described in Method 1 above.

A further assay relates to E. cloacae. The assay is described as follows: RIND XXIX reduction solution assay, Δ fluorescence. Conditions: E. cloacae (gram -) about 5×10^7 cells/ml, polymixin B at 0.01 mg/ml of methanol. The format is cell-based, Enterobacter cloacae. The protocol: (§1) Bacterial suspensions were prepared by growing the cells in BHT broth to stationary phase overnight at 37° C. P. auruginosa was grown with agitation. About 40 ml of each overnight culture was centrifuged, decanted and washed once with 0.05 molar potassium phosphate buffer or 0.05 molar N-2-hydroxy-ethylpiperazine-N'-2-ethanesulfonic acid (HEPES) buffer, pH 7.8, and resuspended in buffer.
(§2) Dispersions containing RIND compounds were prepared by dissolving the RIND compound in N,N-dimethylformamide (DMF) at 16 mg compound per ml of solvent. An aliquot (250 μl) of the resulting solution was added to 500 μl of TRITON X-100 surfactant. This mixture was then added dropwise with stirring to 25 ml of 0.05 molar HEPES buffer. A dispersion of RIND XXIX was prepared similarly except that DMF was acidified with 0.1% sulfuric acid. Compositions containing water-compatible RIND compounds were prepared as described above except the surfactant was omitted.
(§3) Each test solution contained the following: dispersion of RIND XXIX (25 μl) prepared as described above, glucose (400 μl of 10% aqueous solution), tryptose (400 μl of 10% aqueous solution), trimethyl-1,4-benzoquinone ETA (500 μl of 1.5 mg/ml methanol). Aliquots (200 μl) of the mixture were mixed with solutions of the antibiotics (50 μl). The cell suspensions (50 μl) were then added. The final concentration of gramcidin S and tyrocidin were 0.1 mg/ml and 3.3 mg/ml, respectively. The final cell concentration was about 5×10^7 cells/ml. Cell control solutions contained all reagents except antibiotics. Background controls consisted of both buffer and solution controls. […]
(§4) The solutions were incubated at 37° C. for 30 minutes, and the change in fluorescence emission (Δ fluorescence) was determined as the difference between the readings taken when the solutions were first mixed and then after 30 minutes incubation. Measurements were made in a commercially available MICROFLUOR Reader (available from Dynatech Laboratories, Alexandria, Virginia, U.S.A.), modified with an excitation filter at 540 nm, an emission filter at 620 nm and a Xenon lamp. […]

In a further assay the test system is E. coli. Kind of assay: RIND XXIX reduction solution assay, Δ fluorescence. Format: cell-based, Escherichia coli. Conditions: E. coli (gram -) about 5×10^7 cells/ml, polymixin B at 0.01 mg/ml of methanol. The procedure:
as §1, §2, §3, §4

The test system of a further assay is K. pneumoniae. Kind of assay: RIND XXIX reduction solution assay, Δ fluorescence. Conditions: K. pneumoniae (gram -) about 5×10^7 cells/ml, polymixin B at 0.01 mg/ml of methanol. Format: cell-based, Klebsiella pneumoniae. The protocol: as §1, §2, §3, §4
Another assay has as its system P. vulgaris. The assay is described as follows: RIND XXIX reduction solution assay, Δ fluorescence. Format: cell-based, Proteus vulgaris. Conditions: P. vulgaris (gram -) about 5×10^7 cells/ml, polymixin B at 0.01 mg/ml of methanol. The procedure: as §1, §2, §3, §4
Another assay relates to P. aeruginosa. The assay is described as follows: RIND XXIX reduction solution assay, Δ fluorescence. The format is cell-based, Pseudomonas aeruginosa. The following applies: P. aeruginosa (gram -) about 5×10^7 cells/ml, polymixin B at 0.01 mg/ml of methanol. The procedure:
as §1, §2, §3, §4

Assay [1] has as its system viable gram-positive and gram-negative bacteria. Kind of assay: Differentiation in RIND XXIX solution assays, overall result. The format is cell-based. Conditions: polymixin B at 0.01 mg/ml of methanol. The protocol:
Each test solution contained the following: dispersion of RIND XXIX (25 μl) prepared as described above, glucose (400 μl of 10% aqueous solution), tryptose (400 μl of 10% aqueous solution), trimethyl-1,4-benzoquinone ETA (500 μl of 1.5 mg/ml methanol). Aliquots (200 μl) of the mixture were mixed with solutions of the antibiotics (50 μl). The cell suspensions (50 μl) were then added. The final concentration of gramcidin S and tyrocidin were 0.1 mg/ml and 3.3 mg/ml, respectively. The final cell concentration was about 5×10^7 cells/ml. Cell control solutions contained all reagents except antibiotics. Background controls consisted of both buffer and solution controls. The buffer control contained all reagents except antibiotics and cells. The solution control contained all reagents except cells.
The solutions were incubated at 37° C. for 30 minutes, and the change in fluorescence emission (Δ fluorescence) was determined as the difference between the readings taken when the solutions were first mixed and then after 30 minutes incubation. Measurements were made in a commercially available MICROFLUOR Reader (available from Dynatech Laboratories, Alexandria, Virginia, U.S.A.), modified with an excitation filter at 540 nm, an emission filter at 620 nm and a Xenon lamp.
This example illustrates the practice of this invention to identify a Proteus species in solution. Test solutions and cell control solutions were prepared and tested as described in Example 2 and 3 except that polymixin B was used at 0.01 mg/ml of methanol. The final cell concentration was about 5×10^7 cells/ml.

The record followed here is patent publication US4912036A, “Rapid differentiation of bacteria using cyclic polypeptide antibiotics” (Eastman Kodak Company, priority 1986, dated 1990).

With `CN[C@H](CC(C)C)C(=O)N[C@H]1C(=O)N[C@@H](CC(N)=O)C(=O)N[C@H]2C(=O)N[C@H]3C(=O)N[C@H](C(=O)N[C@H](C(=O)O)c4cc(O)cc(O)c4-c4cc3ccc4O)[C@H](O)c3ccc(c(Cl)c3)Oc3cc2cc(c3O[C@@H]2O[C@H](CO)[C@@H](O)[C@H](O)[C@H]2O[C@H]2C[C@](C)(N)[C@H](O)[C@H](C)O2)Oc2ccc(cc2Cl)[C@H]1O` [Vancomycin, vancomycin], the “Corrected % Inhibition” value in the assay on S. aureus (Test Method 1 (antibiotic in the test solution), S. aureus about 4.3×10^8 cells/ml, 100 μl of 1 mg/ml antibiotic solution, 30 minutes at 37° C.) is on record as “No Inhibition”.
Take virginiamycin: the “Corrected % Inhibition” value with S. aureus (Test Method 2 (cells preincubated with 50 μl antibiotic solution 30 minutes, centrifuged, pellet assayed), S. aureus) was “No Inhibition”.
On to polymixin B, for which the “Δ Relative Fluorescence (30 Minutes)” value in the assay with E. cloacae is 1975; in the assay with E. coli, 1245; in the assay with K. pneumoniae, 1212; in the assay on P. vulgaris it was 3079; in the assay with P. aeruginosa, 1287. Also, the “inhibition of reduction of RIND XXIX by gram-negative microorganisms, in words” value in assay [1] is recorded as “inhibited all of the gram-negative microorganisms except Proteus vulgaris from reducing the RIND XXIX compound”.
